Measurements as given in the supplement of paper PMC10883282.
Structures can show the parent of a compound that is named as a salt. ± gives the standard deviation of the averaged measurements.

System: SW684
Test: relative viability vs DMSO control (72 h) (fraction); higher = more viable cells
How it was run: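 Sarcoma cell lines were grown in 384-well plates seeded toward 80–90% confluence and exposed 24 h later to serially diluted compound. After 72 h at 37 °C and 5% CO2, with 0.1% DMSO vehicle and a 5 µM positive control on the plates, ATPLite was read. Relative viability, given as percent growth averaged over up to triplicate wells, was rescaled so that 1 is full and 0 is none.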

SMILES | relative viability (0.00017 µM) | relative viability (0.00051 µM) | relative viability (0.00152 µM) | relative viability (0.00457 µM) | relative viability (0.01372 µM) | relative viability (0.04115 µM) | relative viability (0.1235 µM) | relative viability (0.3704 µM) | relative viability (1.111 µM) | relative viability (3.333 µM) | relative viability (10 µM)
CC(C)(C)c1cc(NC(=O)Nc2ccc(-c3cn4c(n3)sc3cc(OCCN5CCOCC5)ccc34)cc2)no1 [Quizartinib] | 1.11 ± 0.14 | 1.209 ± 0.012 | 1.21 ± 0.095 | 1.23 ± 0.019 | 1.2 ± 0.052 | 1.14 ± 0.012 | 1.21 ± 0.03 | 1.23 ± 0.061 | 1.14 ± 0.078 | 1.03 ± 0.038 | 0.734 ± 0.077
CNC(=O)c1ccc(-c2cnc3ncc(Cc4ccc5ncccc5c4)n3n2)cc1F [Capmatinib] | 1.19 ± 0.017 | 1.2 ± 0.043 | 1.19 ± 0.047 | 1.15 ± 0.056 | 1.12 ± 0.046 | 1.127 ± 0.0092 | 1.13 ± 0.029 | 1.14 ± 0.085 | 1.17 ± 0.06 | 1.13 ± 0.052 | 1.05 ± 0.045
CC(C)N1CCN(Cc2cnc(-c3cc(-c4cccc5[nH]ccc45)cc4[nH]ncc34)o2)CC1 [Nemiralisib] | 1 ± 0.084 | 0.911 ± 0.069 | 0.851 ± 0.033 | 0.804 ± 0.014 | 0.721 ± 0.019 | 0.68 ± 0.051 | 0.695 ± 0.011 | 0.618 ± 0.03 | 0.541 ± 0.035 | 0.548 ± 0.027 | 0.444 ± 0.043
C[C@@H](c1ccc2nccn2c1)n1nnc2ncc(-c3cnn(C)c3)nc21 [Volitinib] | 1.17 ± 0.067 | 1.17 ± 0.028 | 1.17 ± 0.022 | 1.14 ± 0.083 | 1.18 ± 0.048 | 1.17 ± 0.034 | 1.16 ± 0.064 | 1.15 ± 0.032 | 1.13 ± 0.019 | 1.13 ± 0.018 | 0.968 ± 0.092
COc1c(OCCCN2CCOCC2)ccc2c1N=C(NC(=O)c1cnc(N)nc1)N1CCN=C21 [Copanlisib] | 1.09 ± 0.061 | 1.12 ± 0.062 | 1 ± 0.026 | 0.7483 ± 0.0065 | 0.631 ± 0.025 | 0.516 ± 0.018 | 0.469 ± 0.011 | 0.435 ± 0.018 | 0.425 ± 0.017 | 0.403 ± 0.0053 | 0.368 ± 0.002
CCN1CCN(Cc2ccc(Nc3ncc(F)c(-c4cc(F)c5nc(C)n(C(C)C)c5c4)n3)nc2)CC1 [Abemaciclib] | 1.13 ± 0.036 | 1.16 ± 0.06 | 1.13 ± 0.048 | 1.12 ± 0.035 | 1.1 ± 0.051 | 1.11 ± 0.051 | 1.04 ± 0.037 | 0.894 ± 0.059 | 0.781 ± 0.028 | 0.832 ± 0.027 | 0.825 ± 0.035
C[C@]1(O)C[C@@H](c2nc(-c3ccc4ccc(-c5ccccc5)nc4c3)c3c(N)nccn32)C1 [Linsitinib] | 1.13 ± 0.073 | 1.17 ± 0.016 | 1.18 ± 0.021 | 1.159 ± 0.0094 | 1.16 ± 0.065 | 1.14 ± 0.021 | 1.13 ± 0.039 | 1.11 ± 0.04 | 1.09 ± 0.035 | 1.07 ± 0.019 | 0.978 ± 0.057
Cc1ccc(NC(=O)c2ccc(CN3CCN(C)CC3)cc2)cc1Nc1nc(-c2cccnc2)cs1 [Masitinib] | 1.04 ± 0.017 | 1.07 ± 0.038 | 1.11 ± 0.029 | 1.08 ± 0.027 | 1.07 ± 0.034 | 1.1 ± 0.025 | 1.06 ± 0.043 | 1 ± 0.025 | 0.851 ± 0.014 | 0.508 ± 0.066 | 0.0554 ± 0.0057
CN1CCN(c2ccc3nc(-c4c(N)c5c(F)cccc5[nH]c4=O)[nH]c3c2)CC1 [Dovitinib] | 1.12 ± 0.039 | 1.17 ± 0.013 | 1.17 ± 0.033 | 1.15 ± 0.037 | 1.18 ± 0.028 | 1.15 ± 0.038 | 1.11 ± 0.037 | 1.138 ± 0.01 | 0.977 ± 0.034 | 0.656 ± 0.019 | 0.294 ± 0.038
CC(=O)Nc1cccc(-n2c(=O)n(C3CC3)c(=O)c3c(Nc4ccc(I)cc4F)n(C)c(=O)c(C)c32)c1 [Trametinib] | 1.16 ± 0.02 | 1.17 ± 0.045 | 1.19 ± 0.04 | 1.14 ± 0.035 | 1.05 ± 0.0092 | 0.859 ± 0.018 | 0.615 ± 0.0083 | 0.552 ± 0.011 | 0.511 ± 0.017 | 0.517 ± 0.0077 | 0.4614 ± 0.002
C=CC(=O)N1CCC[C@@H](n2nc(-c3ccc(Oc4ccccc4)cc3)c3c(N)ncnc32)C1 [Ibrutinib] | 1.18 ± 0.037 | 1.22 ± 0.063 | 1.2 ± 0.016 | 1.22 ± 0.026 | 1.17 ± 0.054 | 1.24 ± 0.054 | 1.15 ± 0.12 | 1.24 ± 0.061 | 1.26 ± 0.078 | 1.3 ± 0.071 | 1.06 ± 0.031
COc1cc2/c(=N/c3ccc(Br)cc3F)nc[nH]c2cc1OCC1CCN(C)CC1 [Vandetanib] | 1.13 ± 0.018 | 1.09 ± 0.075 | 1.14 ± 0.035 | 1.12 ± 0.074 | 1.16 ± 0.033 | 1.16 ± 0.02 | 1.16 ± 0.069 | 1.168 ± 0.0075 | 1.15 ± 0.038 | 1.03 ± 0.054 | 0.132 ± 0.016
C[C@@H]1COCCN1c1cc(-c2ccnn2C)c2ccnc(-c3ccn[nH]3)c2n1 | 1.14 ± 0.056 | 1.19 ± 0.041 | 1.18 ± 0.085 | 1.17 ± 0.069 | 1.14 ± 0.082 | 1.06 ± 0.056 | 1.04 ± 0.048 | 0.919 ± 0.036 | 0.719 ± 0.039 | 0.461 ± 0.023 | 0.367 ± 0.01
COc1cccc2c1C(=O)c1c(O)c3c(c(O)c1C2=O)C[C@@](O)(C(=O)CO)C[C@@H]3O[C@H]1C[C@H](N)[C@H](O)[C@H](C)O1 [Doxorubicin Hydrochloride] | 1.21 ± 0.03 | 1.21 ± 0.023 | 1.2 ± 0.058 | 1.157 ± 0.0079 | 1.06 ± 0.044 | 0.96 ± 0.031 | 0.821 ± 0.062 | 0.731 ± 0.14 | 0.813 ± 0.013 | 0.803 ± 0.033 | 0.693 ± 0.024
O=C(Nc1cnn2ccc(N3CCC[C@@H]3c3cc(F)ccc3F)nc12)N1CC[C@H](O)C1 [Larotrectinib] | 1.13 ± 0.057 | 1.19 ± 0.071 | 1.19 ± 0.044 | 1.16 ± 0.025 | 1.2 ± 0.073 | 1.15 ± 0.05 | 1.14 ± 0.043 | 1.17 ± 0.084 | 1.16 ± 0.021 | 1.09 ± 0.069 | 1.1 ± 0.04
Cc1cc(C)c(/C=C2\C(=O)Nc3ccccc32)[nH]1 [Semaxanib] | 0.981 ± 0.022 | 0.962 ± 0.03 | 0.994 ± 0.026 | 0.935 ± 0.018 | 0.917 ± 0.02 | 0.8931 ± 0.0076 | 0.901 ± 0.046 | 0.923 ± 0.029 | 0.932 ± 0.06 | 0.902 ± 0.072 | 0.812 ± 0.017
CC1(C)CNc2cc(NC(=O)c3cccnc3NCc3ccncc3)ccc21 [Motesanib] | 1.04 ± 0.033 | 0.999 ± 0.073 | 0.999 ± 0.065 | 1.01 ± 0.084 | 0.978 ± 0.016 | 0.9719 ± 0.0041 | 0.99 ± 0.079 | 0.94 ± 0.016 | 0.98 ± 0.064 | 1.02 ± 0.043 | 0.859 ± 0.039
Cc1nc(-c2cn3c(n2)-c2ccc(-c4cnn(C(C)(C)C(N)=O)c4)cc2OCC3)n(C(C)C)n1 [Taselisib] | 1.09 ± 0.027 | 1.1 ± 0.036 | 1.06 ± 0.019 | 1.01 ± 0.027 | 0.923 ± 0.036 | 0.75 ± 0.021 | 0.634 ± 0.009 | 0.549 ± 0.017 | 0.477 ± 0.0088 | 0.445 ± 0.026 | 0.451 ± 0.015
CC(C)NC(=O)C1CCC(n2c(NC(=O)c3ccc(F)cc3)nc3ccc(CN4CCC(C(C)(C)O)CC4)cc32)CC1 (centres undefined) [Belizatinib] | 1.169 ± 0.011 | 1.17 ± 0.071 | 1.19 ± 0.024 | 1.21 ± 0.098 | 1.21 ± 0.11 | 1.17 ± 0.056 | 1.16 ± 0.012 | 1.18 ± 0.03 | 1.09 ± 0.048 | 0.798 ± 0.034 | 0.381 ± 0.056
